“Also recorded” adds a separate entry of the source.

Data set [1] in a line: metabolite identification. The data set is classed as in vitro ADME. To be noted: ± NADPH; for metabolites of the furanyl ring: 60 min; for parent in 60 min samples: UV peak areas. As for the experimental part: Across species, 19d had acceptable fraction unbound in both plasma (fu (plasma): 0.03 (human), 0.041 (rat), 0.025 (cyno), 0.039 (dog) and 0.056 (mouse)) and brain (fu (brain): 0.034 (rat) and 0.081 (mouse)).
Figure 5 Metabolite identification of VU6024578 (19d) in rat and human liver microsomes. […] Thus, we incubated 19d in rat and human liver microsomes (with and without NADPH) for 60 min and monitored by both extracted ion and UV detection for the production of metabolites and consumption of parent.

A further data set concerns the target 3A4 (Homo sapiens, UniProt P08684). Put plainly: inhibition of cytochrome P450 enzymes. In kind it is in vitro ADME. To be noted: human liver microsomes; read-out: CYP450 3A4 inhibition. Further details: 0.1 mg/mL human liver microsomes (HLM) and Substrate Mix; from tissue; host or cells: human liver microsomes. The method, then: A cocktail of substrates for cytochrome P450 enzymes (1A2: Phenacetin, 10 μM; 2C9: Diclofenac, 5 μM; 2D6: Dextromethorphan, 5 μM; 3A4: Midazolam, 2 μM) were mixed for cocktail analysis. For P450 2C19, the substrate stock (Mephenytoin, 40 μM)and substrate mix were prepared separately for discrete analysis. The positive control for pan-P450 inhibition (miconazole) was included alongside each test compound in analysis.
A reaction mixture of 100 mM Kpi, pH 7.4, 0.1 mg/mL human liver microsomes (HLM) and Substrate Mix is prepared and aliquoted into a 96-deepwell block. Test compound and positive control (in duplicate) were then added such that the final concentration of test compound ranged from 0.1–30 μM. […]
Samples were analyzed via electrospray ionization (ESI) on an AB Sciex API-4000 (Foster City, CA) triple-quadrupole instrument that was coupled with Shimadzu LC-10AD pumps (Columbia, MD) and a Leap Technologies CTC PAL autosampler (Carrboro, NC). […]
The IC50 values for each compound were obtained for the individual CYP enzymes by quantitating the inhibition of metabolite formation for each probe substrate. A 0 μM compound condition (or control) was set to 100% enzymatic activity and the effect of increasing test compound concentrations on enzymatic activity could then be calculated from the % of control activity. […]

A short description of data set [2]: satellite PK for mouse AHL. In kind it is in vivo. The source says:
In parallel with the rat AHL study, we carried out a mouse AHL study to determine if the PK/PD relationship would remain intact across rodent species.

The target of the next data set is T1, human mGlu1 (Homo sapiens, UniProt Q13255).
T1 construct: expressed in transfected cells; pcDNA5/TO)
T1 sequence (Q13255 19-1194): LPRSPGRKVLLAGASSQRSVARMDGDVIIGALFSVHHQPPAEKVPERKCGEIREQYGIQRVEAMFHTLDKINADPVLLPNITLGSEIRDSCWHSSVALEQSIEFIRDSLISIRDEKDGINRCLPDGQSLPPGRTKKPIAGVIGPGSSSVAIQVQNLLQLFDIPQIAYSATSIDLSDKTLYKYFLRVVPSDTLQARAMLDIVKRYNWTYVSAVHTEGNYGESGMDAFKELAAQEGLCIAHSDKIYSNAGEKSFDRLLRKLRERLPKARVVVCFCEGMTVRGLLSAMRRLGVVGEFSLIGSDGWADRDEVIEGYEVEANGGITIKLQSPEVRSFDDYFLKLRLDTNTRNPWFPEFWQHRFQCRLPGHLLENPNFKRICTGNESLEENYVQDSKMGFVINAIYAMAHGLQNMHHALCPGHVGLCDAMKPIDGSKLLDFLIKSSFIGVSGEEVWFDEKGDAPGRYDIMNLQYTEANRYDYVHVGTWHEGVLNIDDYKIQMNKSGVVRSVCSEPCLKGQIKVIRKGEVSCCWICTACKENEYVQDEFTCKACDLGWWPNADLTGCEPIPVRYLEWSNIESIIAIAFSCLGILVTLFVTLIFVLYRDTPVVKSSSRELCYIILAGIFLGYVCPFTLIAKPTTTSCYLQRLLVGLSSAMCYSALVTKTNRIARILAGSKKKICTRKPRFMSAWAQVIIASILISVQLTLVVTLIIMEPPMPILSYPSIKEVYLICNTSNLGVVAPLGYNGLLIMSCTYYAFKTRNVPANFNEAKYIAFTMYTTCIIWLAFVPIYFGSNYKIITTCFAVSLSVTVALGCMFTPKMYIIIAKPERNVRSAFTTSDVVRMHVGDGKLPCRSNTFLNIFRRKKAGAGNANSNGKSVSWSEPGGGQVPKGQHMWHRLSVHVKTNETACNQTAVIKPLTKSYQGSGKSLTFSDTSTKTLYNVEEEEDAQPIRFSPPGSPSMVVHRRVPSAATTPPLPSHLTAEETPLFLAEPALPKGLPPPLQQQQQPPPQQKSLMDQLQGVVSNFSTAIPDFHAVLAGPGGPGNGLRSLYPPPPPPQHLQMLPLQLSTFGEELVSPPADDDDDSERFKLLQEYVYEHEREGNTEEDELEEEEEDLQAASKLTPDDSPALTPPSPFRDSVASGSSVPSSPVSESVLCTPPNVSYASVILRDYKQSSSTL
Put plainly: mGlu1 calcium mobilization (triple-add) PAM assay. The data set is classed as cell-based. The method, then:
Tetracycline-inducible human mGlu1 WT-T-REx-293 cells (Wu et al, Science 2014) were cultured at 37 °C in Dulbecco’s Modified Eagle Medium (DMEM) growth medium containing 10% Tet-tested FBS, 2 mM L-glutamine, 20 mM HEPES, 0.1 mM nonessential amino acids, 1 mM sodium pyruvate, antibiotic/antimycotic, 100 μg/mL hygromycin and 5 μg/mL blasticidin in the presence of 5% CO2. […] The mutant stable cell lines were generated in the same manner as the WT as previously described and cultured in the growth medium described above.
To determine the potency of mGlu1 PAMs in calcium assays, Ca flux was measured as previously described in ACS Chem. Bio. 2014, 9, 2334–2346. Briefly, the day before the assay, human mGlu1 WT-T-REx-293 cells were plated in black-walled, clear-bottomed, poly-D-lysine coated 96-well plates at 80,000 cells/100 μL assay medium (DMEM supplemented with 10% dialyzed FBS, 20 mM HEPES, and 1 mM sodium pyruvate) containing 50 ng/mL of tetracycline to induce mGlu1 expression. The next day, media was removed and the cells were incubated with 50 μL of 1.15 μM Fluo-4 AM dye solution prepared in assay buffer (buffer (Hank’s balanced salt solution, 20 mM HEPES, and 2.5 mM probenecid) for 45 min at 37 °C, the dye was removed and replaced with 45 μL of assay buffer. Then, calcium flux was measured using Flexstation II (Molecular Devices, Sunnyvale, CA). Compounds serially diluted at half log concentrations in DMSO were further diluted in assay buffer. The compounds or DMSO vehicle were added to cells and incubated for 2.5 min and an EC20 concentration of glutamate was added and incubated for 1 min. An ECmax concentration of glutamate was also added to cells that were incubated with DMSO vehicle to accurately calculate the EC20 calcium response. Data were normalized by subtracting the basal florescent peak before EC20 agonist addition from the maximal peak elicited by EC20 agonist and PAMs. Using GraphPad Prism 5.0, the concentration response curves were generated and the potencies of the mGlu1 PAMs were determined.

The next data set has as its target dog mGlu1 (Canis lupus familiaris, UniProt A0A8I3NTE8). Put plainly: mGlu1 PAM assay, dog receptor. The data set is classed as cell-based. The conditions noted are these: read-out: dog mGlu1 Glumax.
A short description of data set [3]: rat IV plasma:brain level (PBL) PK. In kind it is in vivo.
Setting [4] is: PAM, calcium flux, EC20 glutamate.

dog mGlu1, sequence (A0A8I3NTE8 30-1195): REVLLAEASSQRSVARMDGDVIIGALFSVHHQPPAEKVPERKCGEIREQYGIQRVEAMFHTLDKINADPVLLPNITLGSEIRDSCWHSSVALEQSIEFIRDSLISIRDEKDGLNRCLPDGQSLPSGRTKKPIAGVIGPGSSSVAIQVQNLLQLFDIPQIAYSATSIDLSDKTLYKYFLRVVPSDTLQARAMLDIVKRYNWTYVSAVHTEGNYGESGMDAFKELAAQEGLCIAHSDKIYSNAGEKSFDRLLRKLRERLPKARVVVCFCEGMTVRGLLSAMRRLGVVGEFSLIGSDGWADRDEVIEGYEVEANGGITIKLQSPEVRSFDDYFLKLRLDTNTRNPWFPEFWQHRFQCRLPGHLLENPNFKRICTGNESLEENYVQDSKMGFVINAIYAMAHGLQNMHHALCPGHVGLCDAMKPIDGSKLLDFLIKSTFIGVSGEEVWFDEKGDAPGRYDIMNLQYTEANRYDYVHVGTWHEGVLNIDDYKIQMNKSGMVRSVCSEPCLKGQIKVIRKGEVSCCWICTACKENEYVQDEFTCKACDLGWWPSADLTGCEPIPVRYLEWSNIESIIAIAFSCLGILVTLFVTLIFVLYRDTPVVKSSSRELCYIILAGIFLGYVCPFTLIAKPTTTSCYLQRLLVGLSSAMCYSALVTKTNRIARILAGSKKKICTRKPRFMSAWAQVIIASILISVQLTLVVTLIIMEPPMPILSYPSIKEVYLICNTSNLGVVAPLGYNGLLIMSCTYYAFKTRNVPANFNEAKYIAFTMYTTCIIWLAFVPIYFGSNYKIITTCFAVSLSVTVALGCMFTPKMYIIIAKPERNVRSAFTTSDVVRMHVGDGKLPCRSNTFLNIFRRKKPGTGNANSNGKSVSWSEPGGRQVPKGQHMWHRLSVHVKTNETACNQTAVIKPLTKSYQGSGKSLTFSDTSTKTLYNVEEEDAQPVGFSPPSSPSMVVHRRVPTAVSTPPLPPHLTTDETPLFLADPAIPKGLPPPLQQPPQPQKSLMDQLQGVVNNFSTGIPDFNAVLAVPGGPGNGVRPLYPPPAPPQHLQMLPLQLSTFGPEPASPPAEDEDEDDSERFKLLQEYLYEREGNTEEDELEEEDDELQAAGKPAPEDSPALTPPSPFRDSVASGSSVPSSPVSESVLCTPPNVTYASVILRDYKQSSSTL
3A4, sequence (P08684 whole entry): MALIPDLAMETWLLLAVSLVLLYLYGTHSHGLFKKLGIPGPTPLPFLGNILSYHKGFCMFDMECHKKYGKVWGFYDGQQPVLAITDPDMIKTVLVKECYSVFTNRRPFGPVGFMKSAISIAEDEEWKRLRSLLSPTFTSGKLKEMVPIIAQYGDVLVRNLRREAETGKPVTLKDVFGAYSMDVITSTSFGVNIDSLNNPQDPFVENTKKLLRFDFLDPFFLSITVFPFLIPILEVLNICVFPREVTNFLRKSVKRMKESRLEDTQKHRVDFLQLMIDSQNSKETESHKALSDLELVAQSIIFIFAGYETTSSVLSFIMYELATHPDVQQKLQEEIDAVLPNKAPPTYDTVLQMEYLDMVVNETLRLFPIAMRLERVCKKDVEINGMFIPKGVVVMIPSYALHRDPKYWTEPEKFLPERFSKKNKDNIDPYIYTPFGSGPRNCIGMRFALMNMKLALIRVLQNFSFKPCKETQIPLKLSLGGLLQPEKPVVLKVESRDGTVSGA

In the case of `Cn1nc(-c2ccnn2C)cc1CNC(=O)c1cc(-c2ccco2)ccc1Cl` [Compound 19d, 2-Chloro-N-((1,2′-dimethyl-1H,2’H-[3,3′-bipyrazol]-5-yl)methyl)-5-(furan-2-yl)benzamide], in data set [1] (human liver microsomes), the “metabolites of the furanyl ring” value is on record as “no metabolites corresponding to oxidation or opening of the furanyl ring were detected” and the “parent in 60 min samples” value is “major component observed”. In data set [1] (rat liver microsomes), the “metabolites of the furanyl ring” value is listed as “no metabolites corresponding to oxidation or opening of the furanyl ring were detected” and the “parent in 60 min samples” value is recorded as “major component observed”. Besides, the IC50 on 3A4 turned out to be 22 µM. Besides, in data set [2] (10 mg/kg), the free brain concentration worked out at 36 nM and the “free brain concentration over the EC50” value is on record as 1.3 fold. In data set [2] (30 mg/kg), the free brain concentration came to 67 nM and the “free brain concentration over the EC50” value stood at 2.5 fold. For the same molecule, on human mGlu1 (setting [4]), the half-maximal effective concentration (EC50) amounted to 54 nM and the “human mGlu1 Glumax” value came out at 83%. For the same molecule, the “human mGlu1 pEC50” value on human mGlu1 (n = 77) was 7.31 ± 0.02. On human mGlu1 (triple-add protocol), the “receptor desensitization (antagonist/EC80 window)” value is listed as “only slight mGlu1 desensitization; also recorded: little receptor desensitization”. Further, the “intrinsic agonist activity (compound alone window)” value on human mGlu1 (triple-add protocol, up to 30 μM) is “no agonism; also recorded: no intrinsic agonist activity”. In addition, on dog mGlu1, the Emax was found to be 129%. Also, in data set [3] (Sprague-Dawley, 0.25 mg/kg/compound, rat IV PBL, brain:plasma), the Kp at 15 min was determined as 0.99. The Kp uu at 15 min in data set [3] (Sprague-Dawley, brain, 0.25 mg/kg/compound, rat IV PBL) stood at 0.82. Moreover, in data set [3] (plasma, iv, 1 mg/kg, rat PK PBL experiment), the half-life was 216 min. Besides, in data set [3] (plasma, iv, 1 mg/kg, rat PK PBL experiment, read-out: CLp), the clearance amounted to 8.3 mL/min/kg. Moreover, the MRT in data set [3] (plasma, iv, 1 mg/kg, rat PK PBL experiment, read-out: MRT) came to 3.5 h. For the same molecule, the Vd in data set [3] (plasma, iv, 1 mg/kg, rat PK PBL experiment, read-out: Vss) is 1.78 L/kg.

Source of the values: PMC11684029, “Discovery of VU6024578/BI02982816: An mGlu1 Positive Allosteric Modulator with Efficacy in Preclinical Antipsychotic and Cognition Models” (Journal of Medicinal Chemistry, 2024).
